Data on 16 compounds can be found in patent US5691373A, “Nonpeptide endothelin antagonists I” (Warner-Lambert Company, priority 1995, dated 1997).

Like-named read-outs stand apart in the source and are kept apart here.

In experiment [1] the target is T1, ETA (Oryctolagus cuniculus, UniProt A5A8K3).
T1 sequence (A5A8K3 21-427): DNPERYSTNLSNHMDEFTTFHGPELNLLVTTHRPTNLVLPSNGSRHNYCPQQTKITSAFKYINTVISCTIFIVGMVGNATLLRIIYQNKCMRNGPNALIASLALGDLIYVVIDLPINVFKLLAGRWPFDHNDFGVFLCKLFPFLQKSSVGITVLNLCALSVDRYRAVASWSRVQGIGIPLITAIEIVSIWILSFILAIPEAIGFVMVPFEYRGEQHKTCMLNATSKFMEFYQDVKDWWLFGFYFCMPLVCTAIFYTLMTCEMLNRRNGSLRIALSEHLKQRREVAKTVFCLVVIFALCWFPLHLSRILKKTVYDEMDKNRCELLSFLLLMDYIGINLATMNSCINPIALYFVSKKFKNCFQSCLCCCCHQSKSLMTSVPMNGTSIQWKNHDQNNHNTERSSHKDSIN

Experiment [2] deals with T2, ETB (Rattus norvegicus, UniProt P21451).
T2 sequence (P21451 27-442): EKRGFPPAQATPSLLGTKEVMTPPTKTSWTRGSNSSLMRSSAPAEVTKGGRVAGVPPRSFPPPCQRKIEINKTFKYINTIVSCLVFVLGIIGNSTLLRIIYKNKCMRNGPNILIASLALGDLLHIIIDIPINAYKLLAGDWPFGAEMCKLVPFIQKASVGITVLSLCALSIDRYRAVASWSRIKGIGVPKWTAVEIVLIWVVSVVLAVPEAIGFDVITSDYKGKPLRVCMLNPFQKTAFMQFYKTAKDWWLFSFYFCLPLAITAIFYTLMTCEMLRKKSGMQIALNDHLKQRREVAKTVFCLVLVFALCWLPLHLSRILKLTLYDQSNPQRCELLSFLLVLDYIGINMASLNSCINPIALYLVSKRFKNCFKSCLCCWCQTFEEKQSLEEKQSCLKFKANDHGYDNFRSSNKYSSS

Experiment [3] deals with T1, ETA. This is another data set of the same source.
The target of experiment [4] is T1, ETA. Nature of the experiment: VERA-A: antagonism of ET-1 stimulated vasoconstriction in the rabbit femoral artery (ETA). The experiment is classed as cell-based. The procedure: Male New Zealand rabbits were killed by cervical dislocation and exsanguination. Femoral and pulmonary arteries were isolated, cleaned of connective tissue, and cut into 4-mm rings. The endothelium was denuded by placing the rings over hypodermic tubing (32 gauge for femoral rings and 28 gauge for pulmonary rings, Small Parts, Inc, Miami, Fla.) and gently rolling them. […] Resting tension was adjusted to 3.0 g for femoral and 4.0 g pulmonary arteries; the rings were left for 90 minutes to equilibrate.

Another experiment concerns the target T3, human ETB receptor (Homo sapiens, UniProt P24530).
T3 construct: expressed in transfected cells; host or cells: CHO-K1 cells, pRc-CMW (so in the source) expression vector, electroporation; membranes used
T3 sequence (P24530 27-442): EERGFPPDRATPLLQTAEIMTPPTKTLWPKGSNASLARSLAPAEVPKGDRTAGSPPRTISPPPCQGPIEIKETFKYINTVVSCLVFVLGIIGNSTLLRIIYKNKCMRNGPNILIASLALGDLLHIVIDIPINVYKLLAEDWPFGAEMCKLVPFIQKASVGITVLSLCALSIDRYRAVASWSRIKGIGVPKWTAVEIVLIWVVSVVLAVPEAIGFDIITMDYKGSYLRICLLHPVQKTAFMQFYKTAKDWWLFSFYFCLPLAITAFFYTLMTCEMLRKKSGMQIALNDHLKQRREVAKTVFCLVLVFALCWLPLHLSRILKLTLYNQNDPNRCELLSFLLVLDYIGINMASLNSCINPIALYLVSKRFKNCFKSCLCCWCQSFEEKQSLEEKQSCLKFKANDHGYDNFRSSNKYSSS
Nature of the experiment: ERBA-B: [125I]-ET-1 binding, recombinant human ETB receptor expressed in CHO-K1 cells.

Experiment [5] relates to ET-1 Induced Pressor Response. Description: inhibition of ET-1 induced pressor response in anesthetized ganglionic blocked rats. The experiment is classed as in vivo, rat (Sprague Dawley). To be noted: IV, ET-1 1 nm/kg. As to the method:
Antagonists were administered IV bolus (3, 10, 30, 100 μmol/kg, IV bolus) in separate groups of rats (5 minutes before ET-1 challenge [see Haleen, et al., J. Cardiovasc, Pharm., 22(Suppl. 8):598-5102 (1993)]). Duration of action of the antagonist was determined in conscious, chronically prepared normotensive rats. Rats were challenged with ET-1 (1.0 nmol/kg, IV bolus) on 5 consecutive days; Day =b 1 =l control and on Days 2-5 at 5, 20, 60, and 120 minutes following treatment with the antagonist. Separate groups of rats were used for each antagonist treatment.

The next experiment concerns acute renal ischemia. To be noted: rats; cited from earlier work.
Experiment [6] relates to cerebral vasospasm. To be noted: cited from earlier work.
For experiment [7], the system named is cerebral vasospasm. To be noted: rabbits with SAH; cited from earlier work.
The test system of experiment [8] is ETB. To be noted: isolated, endothelium-intact porcine pulmonary arteries; cited from earlier work.
[9] abbreviates: ERBA-A IC50, [125I]-ET-1, rabbit renal artery vascular smooth muscle cells.
Where [10] appears, read: ET-1, rabbit femoral artery, read-out: VERA-A pA2 (converted).
The mark [11] stands for this setting: human cloned ETB receptor, read-out: ERBA-B IC50, human cloned receptor data.
Setting [12] is: read-out: ERBA-A IC50, [125I]-ET-1, rabbit renal artery vascular smooth muscle cells.

For the compound `COc1ccc(C2(O)OC(=O)C(c3ccc4c(c3)OCO4)=C2Cc2cccc(C(F)(F)F)c2)cc1` (centres unmarked) [Example 82, 3-Benzo[1,3]dioxol-5-yl-5-hydroxy-5-(4-methoxyphenyl)-4-(3-trifluoromethylbenzyl)-5H-furan-2-one], the IC50 against ETA [1] amounted to 140 nM; against ETB [2], 1300 nM; on ETA [3] (setting [9]) it was 20 nM. At ETA [4] (setting [10]), the Kb is 2510 nM.
As for `COc1ccc(C2(O)OC(=O)C(c3cc(OC)cc(OC)c3)=C2Cc2cccc(Cl)c2)cc1` (centres unmarked) [Example 127, 4-(3-Chlorobenzyl)-3-(3,5-dimethoxyphenyl)-5-hydroxy-5-(4-methoxyphenyl)-5H -furan-2-one], the IC50 was determined as 150 nM against ETA [1], 13 nM against ETA [3] (setting [9]) and 1200 nM at human ETB receptor (setting [11]). The Kb at ETA [4] (setting [10]) was 631 nM.
Taken in the same sequence, the figures for `COc1ccc(C2(O)OC(=O)C(c3cc(OC)cc(OC)c3)=C2Cc2cccc(C(F)(F)F)c2)cc1` (centres unmarked) [Example 128, 3-(3,5-Dimethoxyphenyl)-5-hydroxy-5-(4-methoxyphenyl)-4-(3-trifluoromethylbenzyl)-5H-furan-2-one] were 210 nM, 23 nM, 1600 nM and 1260 nM.
Regarding `COc1ccc(C2(O)OC(=O)C(c3cc(OC)cc(OC)c3)=C2Cc2cccc(OC)c2)cc1` (centres unmarked) [Example 130, 3-(3,5-Dimethoxyphenyl)-5-hydroxy-4-(3-methoxybenzyl)-5-(4-methoxyphenyl)-5 H-furan-2-one], the IC50 worked out at 30 nM at ETA [1], 97 nM on ETA [3] (setting [9]) and 1200 nM on human ETB receptor (setting [11]). Moreover, at ETA [4] (setting [10]), the Kb is 200 nM.
Take `CCCOc1cccc(CC2=C(c3ccc4c(c3)OCO4)C(=O)OC2(O)c2ccc(OC)cc2)c1` (centres unmarked) [Example 159, 3-Benzo[1,3]dioxol-5-yl-5-hydroxy-5-(4-methoxyphenyl)-4-(3-propoxybenzyl)-5 H-furan-2-one]: the IC50 is 36 nM on ETA [1], 560 nM on ETB [2] and 12 nM against ETA [3] (setting [9]). For the same compound, the Kb on ETA [4] (setting [10]) is 100 nM.
`COc1ccc(C(=O)/C(Cc2ccccc2)=C(\C(=O)O)c2ccc3c(c2)OCO3)cc1` [Example 171, 2-Butenoic acid, 2-(1,3-benzodioxol-5-yl)-4-(4-methoxyphenyl)-4-oxo-3-(phenylmethyl)-, (Z)-, ion(1-) compd. with 2-hydroxy-N,N,N-triethanaminium (1:1)]: the IC50 turned out to be 2200 nM on ETB [2] and 39 nM against ETA [3] (setting [9]). The “% Inhibition on ET-1 Induced Pressor Response” value worked out at 21% in [5] (3 μmol/kg), 26% in [5] (10 μmol/kg), 35% in [5] (30 μmol/kg) and 57% in [5] (100 μmol/kg).
Turning to `COc1ccc(C2(O)OC(=O)C(c3ccc4c(c3)OCO4)=C2CC2CCCCC2)cc1` (centres unmarked) [Example 221, 3-Benzo[1,3]dioxol-5-yl-4-cyclohexylmethyl-5-hydroxy-5-(4-methoxyphenyl)-5H -furan-2-one], the IC50 on ETA [1] (read-out: AAR-A, ET-1 (0.3 nM) stimulated arachidonic acid release) is 120 nM; on ETA [3] (setting [12]) it was 20 nM; at human ETB receptor (setting [11]), 240 nM. Moreover, the “VERA-A pA2” value on ETA [4] (ET-1, rabbit femoral artery) is on record as 6.4.
As to `CCCOc1cccc(C/C(C(=O)c2ccc(OC)cc2)=C(/C(=O)O)c2ccc3c(c2)OCO3)c1` [Example 253, 2-Butenoic acid, 2-(1,3-benzodioxol-5-yl)-4-(4-methoxyphenyl)-4-oxo-3-[(3-propoxyphenyl)methyl]-, (Z)-, ion(1-) compound with 2-hydroxy-N,N,N-trimethylethanaminium (1:1)], the values for the IC50 at ETA [3] (setting [12]) and on human ETB receptor (setting [11]) were 17 nM and 900 nM, respectively. For the same compound, the figures for the “% Inhibition on ET-1 Induced Pressor Response” value in [5] (3 μmol/kg), in [5] (10 μmol/kg) and in experiment [5] (30 μmol/kg) were 22%, 42% and 53%, respectively. Further, on ETA [4] (ET-1, rabbit femoral artery), the “VERA-A pA2” value is listed as 7.0.
For `COc1ccc(C(=O)/C(Cc2cc(OC)c(OC)c(OC)c2)=C(\C(=O)O)c2ccc3c(c2)OCO3)cc1` [Example 354, Sodium 2-Benzo[1,3]dioxol-5-yl-4-(4-methoxy-phenyl)-4-oxo-3-(3,4,5-trimethoxy-benzyl)-but-2-enoate], the IC50 was less than 1 nM against ETA [1]; 0.8 nM against ETA [3] (setting [9]); 910 nM at human ETB receptor (ERBA-B IC50, human cloned receptor data). On ETA [4], this compound showed a Kb of 31.6 nM.
For the compound `COc1ccc(C2(O)OC(=O)C(c3ccc4c(c3)OCO4)=C2Cc2ccc(NC(C)=O)cc2)cc1C` (centres unmarked) [Example 384, N-{4-[4-Benzo[1,3]dioxol-5-yl-2-hydroxy-2-(4-methoxy-3-methyl-phenyl)-5-oxo-2,5-dihydro-furan-3-ylmethyl]-phenyl}-acetamide], the figures for the IC50 on ETA [1], against ETA [3] (setting [9]) and on human ETB receptor (setting [11]) were 0.21 nM, 1 nM and 760 nM, respectively. For the same compound, the Kb at ETA [4] (setting [10]) was 50.1 nM.
The matching figures for `COc1ccc(C2(O)OC(=O)C(c3cc(OC)cc(OC)c3)=C2Cc2cc(OC)c(OC)c(OC)c2)cc1` (centres unmarked) [Example 388, 3-(3,5-Dimethoxy-phenyl)-5-hydroxy-5-(4-methoxyphenyl)-4-(3,4,5-trimethoxy-benzyl)-5H-furan-2-one]: 0.26 nM, 1.4 nM, 1100 nM and 100 nM.
As for `COc1cccc(Oc2c(NS(=O)(=O)c3ccc(C(C)(C)C)cc3)ncnc2OCCO)c1` [Ro 46-2005], in the experiment with acute renal ischemia, the “efficacy in acute renal ischemia” value is listed as “effective in models of acute renal ischemia”. The “systemic arterial blood pressure” value with cerebral vasospasm [6] (rat with SAH) is listed as “no significant effect on systemic arterial blood pressure”. Moreover, in the experiment on cerebral vasospasm [6] (rat), the “early cerebral vasospasm following SAH” value is on record as “prevent early cerebral vasospasm following SAH”. In addition, the “efficacy in subarachnoid hemorrhage” value in the experiment with cerebral vasospasm [6] (rats) is “effective in models of acute renal ischemia and subarachnoid hemorrhage”.
With `COc1ccccc1Oc1c(NS(=O)(=O)c2ccc(C(C)(C)C)cc2)nc(-c2ncccn2)nc1OCCO` [Ro 47-0203, Bosentan], the “reduction of basilar artery cross-sectional area compared to sham” value in the experiment on cerebral vasospasm [7] is 36±7%.
Regarding ET[6-21, 1,3,11,15-Ala], the vasorelaxation result with ETB [8] is “caused vasorelaxation”.
ET[8-21,11,15-Ala]: the vasorelaxation entry with ETB [8] was “caused vasorelaxation”.
For N-Acetyl-ET[10-21,11,15-Ala], the vasorelaxation result in the experiment on ETB [8] is on record as “caused vasorelaxation”.
